{"source": "patent US5117052A", "about": "“Physiologically active substances, benastatins A and B, and production and use thereof” (priority 1990, dated 1992)", "key": {"glutathione transferase": {"molecular_target": "T1, glutathione transferase (Rattus norvegicus, UniProt P04905)", "T1 construct": "obtained from a homogenate of rat liver; from tissue; host or cells: rat liver homogenate, partially purified by DEAE-cellulose column and ammonium sulfate salting-out", "T1 sequence (P04905 2-218 limits assumed)": "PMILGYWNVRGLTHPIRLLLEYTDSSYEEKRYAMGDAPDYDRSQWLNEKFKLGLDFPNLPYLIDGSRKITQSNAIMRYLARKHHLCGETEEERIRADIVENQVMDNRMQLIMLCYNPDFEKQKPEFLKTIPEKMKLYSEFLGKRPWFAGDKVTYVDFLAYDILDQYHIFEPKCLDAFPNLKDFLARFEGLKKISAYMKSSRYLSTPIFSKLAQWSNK", "assay": "Glutathione transferase inhibition activity (3,4-dichloronitrobenzene/glutathione, absorption at 345 nm)", "format": "biochemical", "method": "The glutathione transferase inhibition activity was determined by a modified method based on the known method described in Biochemical and Biophysical Research Communications, 112, 980-985 (1983).\nA test tube was charged with a solution mixture consisting of (a) 0.1 ml of 90 mM glutathione (reduction type), (b) 0.05 ml of 20 mM 3,4-dichloronitrobenzene, (c) 1.7 ml of 0.1M potassium phosphate buffer solution (pH 7.4) and (d) 0.1 ml of an aqueous solution containing the test compound. The solution mixture was heated to 37° C. for 3 minutes, and admixed with 0.05 ml of a glutathione transferase solution to effect a reaction at 37° C. for 30 minutes. The glutathione transferase solution employed was one which had been obtained from a homogenate of rat liver and which had been patially refined by means of a DEAE-cellulose column and of salting out-operation with ammonium sulfate.\nAfter the completion of the reaction, the sample was measured for the light absorption (a) at 345 nm. At the same time, a control sample which was free of the test compound and which contained only the buffer solution was measured for the light absorption (b) at 345 nm.\nThe glutathione transferase inhibition activity was determined according to the formula: […]\nIC50, which is the concentration of a test compound required for 50% inhibition, was recorded."}, "[1]": {"test_system": "spleen cells (LPS lymphocyte blast formation reaction)", "assay": "Suppression of LPS-induced lymphocyte blast formation, [3H]-thymidine uptake (Test 2)", "format": "cell-based, BALB/c mouse", "details": "Mus musculus, LPS 100 μg/ml, 72 hours, read-out: IC50, 50% suppression of lymphocyte blast formation (LPS)", "method": "(§1) A pharmacological test was made about a suppression activity of benastatins on the lymphocyte blast formation reaction.\n(§2) In this test, use was made of an RPMI 1640 culture medium supplemented with 20% bovin fetus serum, 25 mM Hepes buffer, 100 μg/ml streptomycin and 100 units/ml penicillin G. The cultivation was effected by using microplate (COSTAR) with a flat bottom and with 96 wells. As mitogens, use was made of lipopolysaccharide (LPS) and concanavalin A (Con A) at concentrations of 100 and 5 μg/ml, respectively.\n(§3) After spleen cells were taken out from BALB/c mouse (female, 25 weeks old), a unicellular suspension of the spleen cells was prepared, and then subjected to a hyper shock treatment to remove erythrocytes therefrom.\n(§4) Each well was charged with 0.2 ml of a sample which contained 2×10^5 spleen cells and the test compound at a predetermined concentration. The cultivation was conducted for 72 hours. Before 8 hours from the completion of cultivation, each well was further charged with 37 KBq of [^3 H]-thymidine to determine the amount of the thymidine taken into the cells. […]"}, "[2]": {"test_system": "spleen cells (Con A lymphocyte blast formation reaction)", "assay": "Suppression of Con A-induced lymphocyte blast formation, [3H]-thymidine uptake (Test 2)", "format": "cell-based, BALB/c mouse", "details": "Mus musculus, Con A 5 μg/ml, 72 hours, read-out: IC50, 50% suppression of lymphocyte blast formation (Con A)", "method": "as §1, §2, §3, §4"}, "mouse": {"test_system": "mouse", "assay": "Toxicity on administration to the abdominal cavity", "format": "in vivo", "details": "100 mg/kg", "text": "Benastatins A and B were each administered to the abdominal cavity of a mouse to examine the toxicity thereof."}, "[3]": {"test_system": "Bacillus cereus ATCC10702", "assay": "Agar dilution assay, minimum growth inhibition concentration", "format": "cell-based", "method": "(§5) The minimum of microorganism growth inhibition concentrations of benastatins A and B were determined for various bacteria, east and fungi according to a conventional agar dilution assay method. It will be seen from Table 1 that benastatins A and B have a satisfactory antimicrobial activity, particularly against gram-positive bacteria, etc."}, "[4]": {"test_system": "Bacillus subtilis NRRL B-558", "assay": "Agar dilution assay, minimum growth inhibition concentration", "format": "cell-based", "details": "NRRLB558", "method": "as §5"}, "Cochliobolus miyabeanus": {"test_system": "Cochliobolus miyabeanus", "assay": "Agar dilution assay, minimum growth inhibition concentration", "format": "cell-based", "details": "Bipolaris oryzae", "method": "as §5"}, "[5]": {"test_system": "Corynebacterium bovis 1810", "assay": "Agar dilution assay, minimum growth inhibition concentration", "format": "cell-based", "method": "as §5"}, "[6]": {"test_system": "Cryptococcus neoformans F-10", "assay": "Agar dilution assay, minimum growth inhibition concentration", "format": "cell-based", "details": "F10", "method": "as §5"}, "Micrococcus luteus FDA16": {"test_system": "Micrococcus luteus FDA16", "assay": "Agar dilution assay, minimum growth inhibition concentration", "format": "cell-based", "method": "as §5"}, "[7]": {"test_system": "Staphylococcus aureus MS9610", "assay": "Agar dilution assay, minimum growth inhibition concentration", "format": "cell-based", "method": "as §5"}, "[8]": {"test_system": "Staphylococcus aureus Smith", "assay": "Agar dilution assay, minimum growth inhibition concentration", "format": "cell-based", "method": "as §5"}, "[9]": {"test_system": "Staphylococcus aureus No. 5 (MRSA)", "assay": "Agar dilution assay, minimum growth inhibition concentration", "format": "cell-based", "details": "read-out: Minimum growth-inhibition concentration"}, "[10]": {"test_system": "Staphylococcus aureus No. 17 (MRSA)", "assay": "Agar dilution assay, minimum growth inhibition concentration", "format": "cell-based", "details": "read-out: Minimum growth-inhibition concentration"}, "Escherichia coli NIHJ": {"test_system": "Escherichia coli NIHJ", "assay": "Agar dilution assay, minimum growth inhibition concentration", "format": "cell-based", "details": "Escherichia coli NIHJ; read-out: Minimum growth-inhibition concentration"}, "[11]": {"test_system": "Shigella dysenteriae JS11910", "assay": "Agar dilution assay, minimum growth inhibition concentration", "format": "cell-based", "details": "JS11910, read-out: Minimum growth-inhibition concentration"}, "Salmonella typhi T-63": {"test_system": "Salmonella typhi T-63", "assay": "Agar dilution assay, minimum growth inhibition concentration", "format": "cell-based", "details": "Salmonella enterica"}, "Proteus rettgeri GN311": {"test_system": "Proteus rettgeri GN311", "assay": "Agar dilution assay, minimum growth inhibition concentration", "format": "cell-based", "details": "Providencia rettgeri; Proteus rettgeri GN311; read-out: Minimum growth-inhibition concentration"}, "[12]": {"test_system": "Pseudomanas aeruginosa A3", "assay": "Agar dilution assay, minimum growth inhibition concentration", "format": "cell-based", "details": "Pseudomanas aeruginosa A3; read-out: Minimum growth-inhibition concentration"}, "[13]": {"test_system": "Klebsiella pneumoniae PCI602", "assay": "Agar dilution assay, minimum growth inhibition concentration", "format": "cell-based", "details": "Klebsiella pneumoniae PCI602; read-out: Minimum growth-inhibition concentration"}, "[14]": {"test_system": "Mycabacterium smegmatis ATCC607", "assay": "Agar dilution assay, minimum growth inhibition concentration", "format": "cell-based", "details": "Mycabacterium smegmatis ATCC607; read-out: Minimum growth-inhibition concentration"}, "Candida tropicalis F-1": {"test_system": "Candida tropicalis F-1", "assay": "Agar dilution assay, minimum growth inhibition concentration", "format": "cell-based", "details": "F1; Candida tropicalis F-1; read-out: Minimum growth-inhibition concentration"}, "[15]": {"test_system": "Saccharomyces cerevisiae F-7", "assay": "Agar dilution assay, minimum growth inhibition concentration", "format": "cell-based", "details": "F7; Saccharomyces cerevisiae F-7; read-out: Minimum growth-inhibition concentration"}, "Pyricularia oryzae": {"test_system": "Pyricularia oryzae", "assay": "microbe, parasite or virus in culture", "format": "cell-based", "details": "read-out: Minimum growth-inhibition concentration"}, "Aspergillus niger F-16": {"test_system": "Aspergillus niger F-16", "assay": "Agar dilution assay, minimum growth inhibition concentration", "format": "cell-based", "details": "F16; Aspergillus niger F-16; read-out: Minimum growth-inhibition concentration"}}, "note": "pIC50: −log10 of the molar value."}
{"smiles": "CCCCCc1cc2ccc3c(O)c4c(cc3c2c(O)c1C(=O)O)C(C)(C)c1cc(O)cc(O)c1C4=O", "note": "[Benastatin A, benastatin A]", "values": [{"measurement": "pIC50", "setting": "glutathione transferase", "value": 5.30}, {"measurement": "IC50", "setting": "[1]", "value": 7.7, "unit": "µg/mL"}, {"measurement": "IC50", "setting": "[2]", "value": 7.3, "unit": "µg/mL"}, {"measurement": "Toxicity", "setting": "mouse", "value": "No toxicity was observed"}, {"measurement": "MIC", "setting": "[3]", "value": 3.12, "unit": "µg/mL"}, {"measurement": "MIC", "setting": "[4]", "value": 3.12, "unit": "µg/mL"}, {"measurement": "MIC", "setting": "Cochliobolus miyabeanus", "value": "> 25", "unit": "µg/mL"}, {"measurement": "MIC", "setting": "[5]", "value": 3.12, "unit": "µg/mL"}, {"measurement": "MIC", "setting": "[6]", "value": 50, "unit": "µg/mL"}, {"measurement": "MIC", "setting": "Micrococcus luteus FDA16", "value": 3.12, "unit": "µg/mL"}, {"measurement": "MIC", "setting": "[7]", "value": 3.12, "unit": "µg/mL"}, {"measurement": "MIC", "setting": "[8]", "value": 3.12, "unit": "µg/mL"}, {"measurement": "MIC", "setting": "[9]", "value": 3.12, "unit": "µg/mL"}, {"measurement": "MIC", "setting": "[10]", "value": 3.12, "unit": "µg/mL"}, {"measurement": "MIC", "setting": "Escherichia coli NIHJ", "value": 100, "unit": "µg/mL"}, {"measurement": "MIC", "setting": "[11]", "value": "> 50", "unit": "µg/mL"}, {"measurement": "MIC", "setting": "Salmonella typhi T-63", "value": "> 50", "unit": "µg/mL"}, {"measurement": "MIC", "setting": "Proteus rettgeri GN311", "value": 50, "unit": "µg/mL"}, {"measurement": "MIC", "setting": "[12]", "value": "> 50", "unit": "µg/mL"}, {"measurement": "MIC", "setting": "[13]", "value": "> 50", "unit": "µg/mL"}, {"measurement": "MIC", "setting": "[14]", "value": 50, "unit": "µg/mL"}, {"measurement": "MIC", "setting": "Candida tropicalis F-1", "value": "> 50", "unit": "µg/mL"}, {"measurement": "MIC", "setting": "[15]", "value": "> 100", "unit": "µg/mL"}, {"measurement": "MIC", "setting": "Pyricularia oryzae", "value": 50, "unit": "µg/mL"}, {"measurement": "MIC", "setting": "Aspergillus niger F-16", "value": "> 50", "unit": "µg/mL"}, {"measurement": "Solubility in organic solvents", "setting": "Solubility; dimethyl sulfoxide, methanol, acetone, ethyl acetate", "value": "soluble"}, {"measurement": "Solubility in water", "setting": "Solubility; water", "value": "insoluble"}]}
